According to patent EP1095657A2, “Compositions for the regulation of cytokine activity” (priority 1992, dated 1994):

Assays:
[1] = system: respiratory distress after aerosolized OVA challenge; assay: Experimental allergic bronchial asthma in rats; format: in vivo, Brown Norway rats; conditions: 30 ng s.c. on day 30, challenge on day 35; saline group Grade 3 or 4
Experimental: To assess the ability of substance H-9392 to prevent a bronchial asthma attack, 6 male Brown Norway rats were primed to ovalbumin (OVA) by subcutaneous injection of 1 mg of OVA in suspension with 200 mg AlOH/ml 0.9% saline solution accompanied by intraperitoneal injection of 1 ml solution containing 6x10^6 heat killed Bordetella pertussis bacteria (Pasteur Merieux, S.V.), on day zero. Subsequent challenges consisted of a 5 minute period of inhalation of OVA (1 mg/ml solution) aerosolized in a Devilbiss Nebulizer operated at an airflow of 6 L/min. Respiratory Distress (RD) responses were scored as Grade 0, no signs of distress; Grade 1, tachypnea; Grade 2, moderate labored breathing; Grade 3 severe labored breathing with mouth open; Grade 4, loss of consciousness and muscular tone. Sixteen days following primary immunization all animals were exposed to an initial aerosolized challenge to establish the positive control. The animals were coded so that the observer was ignorant of the subject animal's history.
On day thirty, the animals were divided into 2 groups and given either saline (control Group A) or 30 ng of substance H-9392, s.c., (Group B) and challenged on day 35 as above.

[2] = system: secretion of active TNF-α by activated human CD4+ T cells; assay: Bioassay of TNF-α activity using human CD4+ T cells derived from PBLs (human PBL bioassay); conditions: conc range of 1 µg/ml - 0.01 pg/ml; inconsistent = not the same result in all three bioassays

O=C(O)C1=C[C@H](O)[C@@H](OS(=O)(=O)O)[C@H](O[C@H]2[C@H](O)[C@@H](NS(=O)(=O)O)C(O)O[C@@H]2CO)O1 (stereo partly drawn) [H-9392, 2-O-sulfate-4-deoxy-4-en-iduronic acid-(α-1,4)-2-deoxy-2-N-sulfateglucosamine]
respiratory distress after challenge, in words [1]: mere tachypnea | Bioassay of TNF Activity, in words [2]: Inconsistent
